Converted amounts (≈) assume the structure as drawn.
Assays:
KB = test: In vitro inhibitory activity against KB (human carcinoma of the nasopharynx) cell proliferation.; type: functional, cell-based
Mus musculus [1] = test: Ratio between dead mices and total mices at the dose of 25 (mg/kg/day.); 0/6; type: functional
MC-38 [2] = test: Ratio between Tumor weight of treated mice and Tumor weight of control mice * 100 at the dose of 25 (mg/kg/day); type: functional
MC-38 [3] = test: Ratio between Tumor weight of treated mice and Tumor weight of control mice * 100 at the dose of 12.5 (mg/kg/day); type: functional
MC-38 [4] = test: In vitro inhibitory activity against colon 38 cell proliferation; type: functional, cell-based; settings: Mus musculus
Mus musculus [5] = test: Ratio between dead mices and total mices at the dose of 12.5 (mg/kg/day.); 0/6; type: functional
MC-38 [6] = test: Ratio between Tumor weight of treated mice and Tumor weight of control mice * 100 at the dose of 50 (mg/kg/day); type: functional
Mus musculus [7] = test: Ratio between dead mices and total mices at the dose of 50 (mg/kg/day.); 0/6; type: functional
MC-38 [8] = test: Ratio between Tumor weight of treated mice and Tumor weight of control mice * 100 at the dose of 100 (mg/kg/day.); type: functional
MC-38 [9] = test: Ratio between Tumor weight of treated mice and Tumor weight of control mice * 100 at the dose of 400 (mg/kg/day.); type: functional
Mus musculus [10] = test: Ratio between dead mices and total mices at the dose of 200 (mg/kg/day.); 0/6; type: functional
MC-38 [11] = test: Ratio between Tumor weight of treated mice and Tumor weight of control mice * 100 at the dose of 200 (mg/kg/day.); type: functional
Mus musculus [12] = test: Ratio between dead mices and total mices at the dose of 400 (mg/kg/day.); 0/6; type: functional
Mus musculus [13] = test: Ratio between dead mices and total mices at the dose of 100 (mg/kg/day.); 0/6; type: functional
MC-38 [14] = test: Ratio between Tumor weight of treated mice and Tumor weight of control mice * 100 at the dose of 50 (mg/kg/day.); type: functional
MC-38 [15] = test: Ratio between Tumor weight of treated mice and Tumor weight of control mice * 100 at the dose of 200 (mg/kg/day); type: functional
Mus musculus [16] = test: Ratio between dead mices and total mices at the dose of 200 (mg/kg/day.); 2/6; type: functional
MC-38 [17] = test: Ratio between Tumor weight of treated mice and Tumor weight of control mice * 100 at the dose of 100 (mg/kg/day); type: functional

| SMILES | IC50 (KB) [µg/mL] | Deaths/total (Mus musculus [1]) | T/C (MC-38 [2]) [%] | T/C (MC-38 [3]) [%] | IC50 (MC-38 [4]) [µg/mL] | Deaths/total (Mus musculus [5]) | T/C (MC-38 [6]) [%] | Deaths/total (Mus musculus [7]) | T/C (MC-38 [8]) [%] | T/C (MC-38 [9]) [%] | Deaths/total (Mus musculus [10]) | T/C (MC-38 [11]) [%] | Deaths/total (Mus musculus [12]) | Deaths/total (Mus musculus [13]) | T/C (MC-38 [14]) [%] | T/C (MC-38 [15]) [%] | Deaths/total (Mus musculus [16]) | T/C (MC-38 [17]) [%] |
| --- | --- | --- | --- | --- | --- | --- | --- | --- | --- | --- | --- | --- | --- | --- | --- | --- | --- | --- |
| COc1ccc(S(=O)(=O)Nc2cccnc2Nc2ccncc2)cc1 | 1 (≈ 2.81 µM) | 0 | 35 | 41 | 1.4 (≈ 3.93 µM) | 0 | 14 | 0 | – | – | – | – | – | – | – | – | – | – |
| Cc1ccc(S(=O)(=O)Nc2cccnc2Nc2ccccc2)cc1 | 1.5 (≈ 4.42 µM) | – | – | – | 3.2 (≈ 9.43 µM) | – | – | – | 20 | 1 | 0 | 19 | 0 | 0 | – | – | – | – |
| Cc1ccc(S(=O)(=O)Nc2ccccc2Nc2ccccc2)cc1 | 0.46 (≈ 1.36 µM) | – | – | – | 1.2 (≈ 3.55 µM) | – | – | – | – | – | – | – | – | – | – | – | – | – |
| COc1ccc(S(=O)(=O)Nc2cccnc2Nc2ccccc2)cc1 | 0.27 (≈ 0.76 µM) | – | – | – | 0.45 (≈ 1.27 µM) | – | – | 0 | 2 | – | 0 | 1 | – | 0 | 27 | – | – | – |
| COc1ccc(Nc2ncccc2NS(=O)(=O)c2ccc(OC)cc2)cc1 | 1.9 (≈ 4.93 µM) | – | – | – | 3.6 (≈ 9.34 µM) | – | – | 0 | 1 | – | – | – | – | 0 | 30 | 0 | 2 | – |
| COc1ccc(S(=O)(=O)Nc2cccnc2Nc2ccc(O)cc2)cc1 [ABT-751] | 0.29 (≈ 0.781 µM) | 0 | 32 | 59 | 0.38 (≈ 1.02 µM) | 0 | 3 | 0 | – | – | – | – | – | 0 | – | – | – | 2 |

Reference: ChEMBL document CHEMBL1125470, “Novel sulfonamides as potential, systemically active antitumor agents” (J Med Chem, 1992)
